Assay results taken from patent US9834548B2, “Pyridazine compounds as JAK inhibitors” (Portola Pharmaceuticals, Inc., priority 2014, dated 2017).

Columns and labels:
Assay type in all cases: biochemical
JAK1 = JAK1 (Homo sapiens (Human), UniProt P23458); experiment: Purified kinase assay (Z'-LYTE), JAK1; conditions: Table 1; read-out: JAK1 IC50
Protocol: (§1) JAK and TYK2 tyrosine phosphorylation activity is measured using the Z′-LYTE™ Technology developed by Invitrogen Corporation (Carlsbad, Calif.). For JAK1, JAK2 and JAK3 the Z′-LYTE™ Kinase Assay Kit-Tyr6 Peptide (part number PV4122) was used. For TYK2 the Z′-LYTE™ Kinase Assay Kit-Tyr6 Peptide (part number PV3192) was used. The Z′-LYTE™ biochemical assay employs a fluorescence resonance energy transfer (FRET) coupled-enzyme format and is based on the differential sensitivity of phosphorylated and non-phosphorylated peptides to proteolytic cleavage. The assay uses a synthetic peptide substrate that is labeled with a donor fluorophore (coumarin) and an acceptor fluorophore (fluorescein) that make up a FRET pair. In the primary reaction (the Kinase Reaction), the kinase transfers the γ-phosphate of ATP to a single tyrosine residue on the substrate, while the presence of a kinase inhibitor in the primary reaction suppresses phosphorylation. In the secondary reaction (the Development Reaction), a site-specific protease (the Development Reagent) is added. The development buffer quenches the Kinase Reaction, while the protease recognizes and cleaves non-phosphorylated Z′-LYTE™ peptide substrate. Cleavage disrupts FRET between the donor and acceptor fluorophores on the non-phosphorylated substrate, while uncleaved, phosphorylated substrate maintains FRET.
(§2) To test the ability of candidate molecules to inhibit JAK tyrosine phosphorylation activity, molecules are reconstituted in 100% DMSO and serially diluted 1:10 in polypropylene v-bottom microtiter plates. The candidate molecules are then diluted 1:25 into kinase buffer and 2.5 μl transferred into duplicate wells of a 384 well low volume black microtiter assay plate (Corning, USA). The final DMSO concentration in the assay is 1%. The kinase reaction contains 2.5 μl of a candidate molecule, 5 μl of catalytic domain recombinant Kinase enzyme+Tyr peptide substrate (Invitrogen, CA) and ATP (Invitrogen, CA). The kinase reaction is allowed to proceed for 1 hour at room temperature. The protease reaction is initiated by the addition of Development Reagent (Invitrogen, CA). After 1 hour incubation at room temperature the fluorescence is measured using a FlexStation plate reader (Molecular Devices, Sunnyvale, Calif.). The reader settings used are as follows: Fluorescence mode, endpoint, top read, excitation 400 nm, emission 445 nm and 520 nm, Auto Cutoff 435 nm and 515 nm, PMT sensitivity high, 6 reads per well Inhibition of JAK activity is calculated as the percent phosphorylation of substrate in the presence of inhibitor compared to the percent phosphorylation of substrate in the absence of inhibitor. IC50's were derived using Xlfit 4.3 (IDBS, UK), 4 parameter logistic model 205: Y=(A+((B−A)/(1+((C/x)^D)))).

JAK3 = JAK3 (Homo sapiens (Human), UniProt P52333); experiment: Purified kinase assay (Z'-LYTE), JAK3; conditions: Table 1; read-out: JAK3 IC50
Chain of JAK3 (P52333 822-1111): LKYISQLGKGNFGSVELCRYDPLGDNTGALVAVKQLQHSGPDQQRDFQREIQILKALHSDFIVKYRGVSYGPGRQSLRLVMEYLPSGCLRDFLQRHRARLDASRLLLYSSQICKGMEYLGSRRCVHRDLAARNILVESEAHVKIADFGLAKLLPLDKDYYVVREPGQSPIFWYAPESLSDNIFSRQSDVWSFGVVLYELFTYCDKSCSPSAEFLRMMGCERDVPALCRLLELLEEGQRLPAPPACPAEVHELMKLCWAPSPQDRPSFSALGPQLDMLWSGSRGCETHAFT
Protocol: as §1, §2

JAK2 = JAK2 (Homo sapiens (Human), UniProt O60674); experiment: Purified kinase assay (Z'-LYTE), JAK2; conditions: Table 1; read-out: JAK2 IC50
Chain of JAK2 (O60674 849-1124): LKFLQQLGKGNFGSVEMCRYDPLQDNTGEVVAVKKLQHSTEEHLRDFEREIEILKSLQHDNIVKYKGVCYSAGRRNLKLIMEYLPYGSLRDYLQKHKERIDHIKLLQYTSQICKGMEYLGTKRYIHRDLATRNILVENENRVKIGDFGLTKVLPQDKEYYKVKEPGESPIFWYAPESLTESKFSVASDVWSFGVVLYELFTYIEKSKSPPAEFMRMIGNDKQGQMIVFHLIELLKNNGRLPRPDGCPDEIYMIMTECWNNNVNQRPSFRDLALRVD
Protocol: as §1, §2

TYK2 = TYK2 (Homo sapiens (Human), UniProt P29597); experiment: Purified kinase assay (Z'-LYTE), TYK2; conditions: Table 1; read-out: Tyk2 IC50
Chain of TYK2 (P29597 897-1176): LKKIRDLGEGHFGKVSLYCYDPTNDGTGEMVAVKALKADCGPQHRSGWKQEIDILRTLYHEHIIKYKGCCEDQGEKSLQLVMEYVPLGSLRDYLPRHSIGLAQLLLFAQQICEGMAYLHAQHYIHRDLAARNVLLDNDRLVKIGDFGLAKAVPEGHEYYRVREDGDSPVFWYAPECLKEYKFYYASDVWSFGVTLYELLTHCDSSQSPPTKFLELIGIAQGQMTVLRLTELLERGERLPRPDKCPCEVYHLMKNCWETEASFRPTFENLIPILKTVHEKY
Protocol: as §1, §2

Chain of JAK1 (P23458 875-1153): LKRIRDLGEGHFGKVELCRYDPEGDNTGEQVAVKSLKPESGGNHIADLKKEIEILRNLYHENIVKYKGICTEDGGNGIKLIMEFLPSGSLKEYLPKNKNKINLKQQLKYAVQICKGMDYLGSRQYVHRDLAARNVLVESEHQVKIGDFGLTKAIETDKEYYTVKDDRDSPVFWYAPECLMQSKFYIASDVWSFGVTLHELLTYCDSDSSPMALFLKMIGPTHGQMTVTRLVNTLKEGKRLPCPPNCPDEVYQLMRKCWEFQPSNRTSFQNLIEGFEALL

Row | Structure (SMILES) | IC50 (JAK1) | IC50 (JAK3) | IC50 (JAK2) | IC50 (TYK2)
1 | NC(=O)c1nnc(Nc2cccc(OCCN3CCCC3)c2)cc1NCc1cccc(F)c1 [Compound 56] | > 1000 nM | 10 to 100 nM | 100 to 1000 nM | > 1000 nM
2 | CC(=O)N1CCN(c2ccc(Nc3cc(NCc4cccc(F)c4)c(C(N)=O)nn3)cc2)CC1 [Compound 19] | > 1000 nM | 1 to 10 nM | 100 to 1000 nM | 100 to 1000 nM
3 | COc1cccc(CNc2cc(Nc3ccc(N4CCN(C(C)=O)CC4)cc3)nnc2C(N)=O)c1 [Compound 58] | > 1000 nM | 10 to 100 nM | 100 to 1000 nM | > 1000 nM
4 | Cc1cc(Nc2cc(NCc3cccc(F)c3)c(C(N)=O)nn2)ccc1N1CCOCC1 [Compound 54] | > 1000 nM | 10 to 100 nM | > 1000 nM | –
5 | NC(=O)c1nnc(Nc2ccc(N3CCOCC3)cn2)cc1NCc1cccc(F)c1 [Compound 64] | > 1000 nM | 1 to 10 nM | 10 to 100 nM | –
6 | CC(C)CNc1cc(Nc2ccc(N3CCNCC3)cc2)nnc1C(N)=O [Compound 15] | > 1000 nM | 100 to 1000 nM | > 1000 nM | –
7 | CC(=O)N1CCN(c2ccc(Nc3cc(NCC4CCNCC4)c(C(N)=O)nn3)cc2)CC1 [Compound 63] | > 1000 nM | 100 to 1000 nM | > 1000 nM | –
8 | CC(=O)N1CCN(c2ccc(Nc3cc(NC4CCCCC4)c(C(N)=O)nn3)cc2)CC1 [Compound 8, 6-((4-(4-acetylpiperazin-1-yl)phenyl)amino)-4-(cyclohexylamino)pyridazine-3-carboxamide] | 100 to 1000 nM | 10 to 100 nM | 100 to 1000 nM | –
9 | CC(=O)N1CCN(c2ccc(Nc3cc(NCc4cccc(-n5ccnc5)c4)c(C(N)=O)nn3)cc2)CC1 [Compound 68] | > 1000 nM | 10 to 100 nM | > 1000 nM | –
10 | CS(=O)(=O)Cc1ccc(Nc2cc(NCc3cc(F)ccc3F)c(C(N)=O)nn2)cc1 [Compound 88] | 100 to 1000 nM | 1 to 10 nM | 100 to 1000 nM | –
11 | CC(=O)N1CCN(c2ccc(Nc3cc(NCc4cccc(-c5ccccn5)c4)c(C(N)=O)nn3)cc2)CC1 [Compound 71] | > 1000 nM | 100 to 1000 nM | > 1000 nM | –
12 | COC(=O)N(C)c1ccc(Nc2cc(NCc3cccc(F)c3F)c(C(N)=O)nn2)cc1 [Compound 45] | > 1000 nM | 10 to 100 nM | > 1000 nM | –

Continued, values first:

Row | IC50 (JAK1) | IC50 (JAK3) | IC50 (JAK2) | IC50 (TYK2) | Structure (SMILES)
13 | 100 to 1000 nM | 1 to 10 nM | 100 to 1000 nM | 100 to 1000 nM | CS(=O)(=O)Cc1ccc(Nc2cc(NCc3cccc(F)c3F)c(C(N)=O)nn2)cc1 [Compound 89]
14 | 100 to 1000 nM | 1 to 10 nM | 10 to 100 nM | 100 to 1000 nM | NC(=O)c1nnc(Nc2ccc(N3CCNCC3)cc2)cc1NCc1cccc2ccsc12 [Compound 99]
15 | > 1000 nM | 10 to 100 nM | 100 to 1000 nM | – | CCC(=O)N1CCC(Cn2cc(Nc3cc(NCc4cccc(F)c4)c(C(N)=O)nn3)cn2)CC1 [Compound 130]
16 | > 1000 nM | 10 to 100 nM | 100 to 1000 nM | – | CN(c1ccc(Nc2cc(NCc3cccc(F)c3)c(C(N)=O)nn2)cc1)S(C)(=O)=O [Compound 102]
17 | 100 to 1000 nM | 10 to 100 nM | 100 to 1000 nM | – | CN(C)C(=O)Cn1cc(Nc2cc(NCc3cccc4ccsc34)c(C(N)=O)nn2)cn1 [Compound 131]
18 | > 1000 nM | 10 to 100 nM | 100 to 1000 nM | – | CC(C)(c1ccc(Nc2cc(NCc3cccc(F)c3)c(C(N)=O)nn2)cc1)S(C)(=O)=O [Compound 95]
19 | > 1000 nM | 10 to 100 nM | 100 to 1000 nM | – | CCn1cc(Nc2cc(NCc3cccc(F)c3F)c(C(N)=O)nn2)cn1 [Compound 120]
20 | > 1000 nM | 10 to 100 nM | 100 to 1000 nM | – | CC(=O)N1CCN(c2ccc(Nc3cc(NCc4cc(-c5cccnc5)ccc4F)c(C(N)=O)nn3)cc2)CC1 [Compound 104]
21 | 100 to 1000 nM | 1 to 10 nM | 10 to 100 nM | – | CC(=O)N1CCC(Cn2cc(Nc3cc(NCc4cccc5ccsc45)c(C(N)=O)nn3)cn2)CC1 [Compound 125]
